Key:
Assay type in all cases: in vivo
Polygonum convolvulus [1] = assay: Pre-emergence herbicidal action, POLCO; settings: for herbicidal action POLCO / herbicidal activity POLCO: dosage 320 g/ha; for herbicidal activity POLCO: scored visually after 3 weeks vs untreated controls (100% = plants have died)
Method in brief: (§1)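 Application took place on the soil surface immediately after sowing into sandy loam, using aqueous WP or EC preparations with 0.2% wetting agent. Visual percent scoring followed 3 weeks later, untreated pots serving as reference.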

Pharbitis purpurea = assay: Post-emergence herbicidal action, PHBPU
Method in brief: (§2)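 Values are visual estimates of herbicidal action, from 0% (as untreated) to 100% (dead), made about 3 weeks after plants at one-leaf stage in sandy loam were sprayed with the formulated compound.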

Matricaria inodora = assay: Pre-emergence herbicidal action, MATIN; set-up: key to Herbicidal action against MATIN: % activity: 100 = plants have died, 0 = like control plants; settings: for herbicidal action MATIN / herbicidal activity MATIN: dosage 320 g/ha; for Herbicidal action against MATIN: comparative experiment; for herbicidal activity MATIN: scored visually after 3 weeks vs untreated controls (100% = plants have died)
Method in brief: as §1

Viola tricolor = assay: Post-emergence herbicidal action, VIOTR; set-up: key: % herbicidal action vs untreated; 100 = plants died, 0 = like control
Method in brief: as §2

Stellaria media = assay: Post-emergence herbicidal action, STEME; set-up: key: % herbicidal action vs untreated; 100 = plants died, 0 = like control
Method in brief: as §2

Amaranthus retroflexus = assay: Post-emergence herbicidal action, AMARE; set-up: key: % herbicidal action vs untreated; 100 = plants died, 0 = like control
Method in brief: as §2

Polygonum convolvulus [2] = assay: Post-emergence herbicidal action, POLCO
Method in brief: as §2

[3] = comparative experiment, post-emergence, 5 g of a.i./ha
[4] = comparative experiment, post-emergence, 20 g of a.i./ha

Compound	herbicidal action PHBPU (Pharbitis purpurea; Dosage 80 g/ha)	herbicidal action MATIN (Matricaria inodora)	herbicidal action VIOTR (Viola tricolor; Dosage 80 g/ha)	herbicidal action STEME (Stellaria media; Dosage 80 g/ha)	herbicidal action AMARE (Amaranthus retroflexus; Dosage 80 g/ha)	herbicidal activity MATIN (Matricaria inodora)	herbicidal action POLCO (Polygonum convolvulus [2]; Dosage 80 g/ha)	also measured
Cc1ccc(C(=O)Nc2nnnn2C)c(Cl)c1C[S+](C)[O-] (racemic) [Example 1-288]	90	100%	100	100	100	–	–	herbicidal action POLCO (Polygonum convolvulus [1]): 80%
Cn1nnnc1NC(=O)c1ccc(I)c(C[S+](C)[O-])c1Cl (racemic) [Example 1-363]	–	–	–	–	–	100%	–	herbicidal activity POLCO (Polygonum convolvulus [1]): 90%; herbicidal action PHBPU (Pharbitis purpurea; post-emergence, dosage 80 g/ha): 90%; Herbicidal action against MATIN (Matricaria inodora; 20 g of a.i./ha): 90; herbicidal action VIOTR (Viola tricolor; post-emergence, dosage 80 g/ha): 100%; herbicidal action STEME (Stellaria media; post-emergence, dosage 80 g/ha): 100%; herbicidal action AMARE (Amaranthus retroflexus; post-emergence, dosage 80 g/ha): 100%
CCS(=O)(=O)Cc1c(C(F)(F)F)ccc(C(=O)Nc2nnnn2C)c1C [Example 1-88]	90	100%	100	100	90	–	90	–
Cc1c(C(=O)Nc2nnnn2C)ccc(C(F)F)c1C[S+](C)[O-] (centres unmarked) [Example 1-108]	90	90%	100	100	100	–	–	herbicidal action POLCO (Polygonum convolvulus [1]): 90%
COc1c(C(=O)Nc2nnnn2C)ccc(C(F)(F)F)c1C[S+](C)[O-] (centres unmarked) [Example 1-135]	90	90%	90	90	100	–	–	–
CCSCc1c(C(F)(F)F)ccc(C(=O)Nc2nnnn2C)c1SCC [Example 1-182]	90	–	100	100	90	100%	–	herbicidal activity POLCO (Polygonum convolvulus [1]): 100%; Herbicidal action against MATIN (Matricaria inodora; 20 g of a.i./ha): 80; Herbicidal action against VIOTR (Viola tricolor; [3]): 90; Herbicidal action against STEME (Stellaria media; [3]): 90; Herbicidal action against AMARE (Amaranthus retroflexus; [3]): 80
CSCc1c(C)ccc(C(=O)Nc2nnnn2C)c1Cl [Example 1-287]	–	90%	100	100	100	–	–	–
COCCSCc1c(C(F)(F)F)ccc(C(=O)Nc2nnnn2C)c1Cl [Example 1-305]	–	–	–	–	–	100%	–	herbicidal action PHBPU (Pharbitis purpurea; post-emergence, dosage 80 g/ha): 100%; herbicidal action VIOTR (Viola tricolor; post-emergence, dosage 80 g/ha): 100%; herbicidal action POLCO (Polygonum convolvulus [2]; post-emergence, dosage 80 g/ha): 100%; herbicidal action STEME (Stellaria media; post-emergence, dosage 80 g/ha): 100%; herbicidal action AMARE (Amaranthus retroflexus; post-emergence, dosage 80 g/ha): 100%
Cn1nnnc1NC(=O)c1ccc(C(F)(F)F)c(CSCC(F)(F)F)c1Cl [Example 1-311]	100	–	100	100	100	100%	–	–
CCS(=O)(=O)Cc1c(C(F)F)ccc(C(=O)Nc2nnnn2C)c1Cl [Example 1-325]	100	–	100	100	–	100%	90	herbicidal activity POLCO (Polygonum convolvulus [1]): 100%
CSCc1c(I)ccc(C(=O)Nc2nnnn2C)c1Cl [Example 1-362]	–	–	–	–	–	100%	–	herbicidal action PHBPU (Pharbitis purpurea; post-emergence, dosage 80 g/ha): 100%; Herbicidal action against MATIN (Matricaria inodora; 20 g of a.i./ha): 70; herbicidal action VIOTR (Viola tricolor; post-emergence, dosage 80 g/ha): 100%; herbicidal action POLCO (Polygonum convolvulus [2]; post-emergence, dosage 80 g/ha): 90%; Herbicidal action against STEME (Stellaria media; [3]): 90; herbicidal action STEME (Stellaria media; post-emergence, dosage 80 g/ha): 100%; Herbicidal action against AMARE (Amaranthus retroflexus; [3]): 100; herbicidal action AMARE (Amaranthus retroflexus; post-emergence, dosage 80 g/ha): 100%
Cn1nnnc1NC(=O)c1ccc(I)c(CS(C)(=O)=O)c1Cl [Example 1-364]	–	–	100	100	100	100%	100	Herbicidal action against POLCO (Polygonum convolvulus [1]; comparative experiment, 20 g of a.i./ha): 90; herbicidal activity POLCO (Polygonum convolvulus [1]): 100%
CSCc1c(Cl)ccc(C(=O)Nc2nnnn2C)c1Cl [Example 1-559]	–	90%	–	–	–	–	–	herbicidal action PHBPU (Pharbitis purpurea; post-emergence, dosage 80 g/ha): 100%; herbicidal action VIOTR (Viola tricolor; post-emergence, dosage 80 g/ha): 100%; herbicidal action STEME (Stellaria media; post-emergence, dosage 80 g/ha): 100%; herbicidal action AMARE (Amaranthus retroflexus; post-emergence, dosage 80 g/ha): 100%
CCn1nnnc1NC(=O)c1ccc(C(F)(F)F)c(CS(=O)(=O)CC)c1C [Example 2-88]	90	100%	100	100	90	–	–	–
CCn1nnnc1NC(=O)c1ccc(C(F)F)c(C[S+](C)[O-])c1C (centres unmarked) [Example 2-108]	100	100%	100	100	100	–	–	–
CCn1nnnc1NC(=O)c1ccc(S(C)(=O)=O)c(CS(C)(=O)=O)c1Cl [Example 2-280]	–	90%	–	–	–	–	–	Herbicidal action against PHBPU (Pharbitis purpurea; post-emergence, dosage 80 g/ha): 90; Herbicidal action against VIOTR (Viola tricolor; post-emergence, dosage 80 g/ha): 90; Herbicidal action against STEME (Stellaria media; post-emergence, dosage 80 g/ha): 100; Herbicidal action against AMARE (Amaranthus retroflexus; post-emergence, dosage 80 g/ha): 90
CCn1nnnc1NC(=O)c1ccc(C(F)(F)F)c(CS(=O)(=O)CC)c1Cl [Example 2-301]	90	100%	100	100	80	–	90	–
CCn1nnnc1NC(=O)c1ccc(I)c(C[S+](C)[O-])c1Cl (centres unmarked) [Example 2-363]	90	–	100	100	100	100%	100	–
CCn1nnnc1NC(=O)c1ccc(Cl)c(CSC)c1Cl [Example 2-559]	100	90%	100	100	100	–	80	–
CCCn1nnnc1NC(=O)c1ccc(S(C)(=O)=O)c(CSC)c1C [Example 3-37]	80	90%	100	100	100	–	–	–
CCCn1nnnc1NC(=O)c1ccc(S(C)(=O)=O)c(CS(C)(=O)=O)c1C [Example 3-39]	90	100%	100	90	100	–	–	–
CCCn1nnnc1NC(=O)c1ccc(C(F)(F)F)c(CSC)c1SC [Example 3-161]	90	100%	100	100	100	–	80	–
CCCn1nnnc1NC(=O)c1ccc(C(F)(F)F)c(CS(=O)(=O)CC)c1Cl [Example 3-301]	100	100%	100	100	–	–	100	–
C=CCSCc1c(C(F)(F)F)ccc(C(=O)Nc2nnnn2CCC)c1Cl [Example 3-308]	90	–	80	100	100	100%	–	–
CCCn1nnnc1NC(=O)c1ccc(C(F)(F)F)c(CSCC(F)(F)F)c1Cl [Example 3-311]	100	100%	90	100	100	–	80	–
CCCn1nnnc1NC(=O)c1ccc(C(F)(F)F)c(CSCC2CC2)c1Cl [Example 3-314]	–	–	–	–	–	100%	–	herbicidal action PHBPU (Pharbitis purpurea; post-emergence, dosage 80 g/ha): 100%; herbicidal action VIOTR (Viola tricolor; post-emergence, dosage 80 g/ha): 100%; herbicidal action POLCO (Polygonum convolvulus [2]; post-emergence, dosage 80 g/ha): 100%; herbicidal action STEME (Stellaria media; post-emergence, dosage 80 g/ha): 100%; herbicidal action AMARE (Amaranthus retroflexus; post-emergence, dosage 80 g/ha): 100%
CCCn1nnnc1NC(=O)c1ccc(C(F)F)c(CS(=O)(=O)CC)c1Cl [Example 3-325]	90	–	100	100	–	100%	–	herbicidal activity POLCO (Polygonum convolvulus [1]): 100%
CCCn1nnnc1NC(=O)c1ccc(I)c(C[S+](C)[O-])c1Cl (centres unmarked) [Example 3-363]	90	100%	100	100	100	–	90	–
CCCn1nnnc1NC(=O)c1ccc(C(F)(F)F)c(CS(C)(=O)=O)c1Br [Example 3-382]	100	100%	90	100	100	–	80	–
CCS(=O)(=O)c1c(C(F)(F)F)ccc(C(=O)Nc2nnnn2C)c1Br [Example V-13, 2-bromo-3-(ethylsulfonyl)-N-(1-methyl-1-1H-tetrazol-5-yl)-4-(trifluoromethyl)benzamide, reference compound]	–	–	–	–	–	–	–	Herbicidal action against PHBPU (Pharbitis purpurea; [4]): 0; Herbicidal action against MATIN (Matricaria inodora; 80 g of a.i./ha): 0; Herbicidal action against VIOTR (Viola tricolor; [4]): 0; Herbicidal action against POLCO (Polygonum convolvulus [2]; [4]): 0; Herbicidal action against STEME (Stellaria media; [4]): 0; Herbicidal action against AMARE (Amaranthus retroflexus; [4]): 0

Reference: patent US12492173B2, “Herbicidal substituted N-tetrazolyl aryl carboxamides” (Bayer Aktiengesellschaft, priority 2019, dated 2025)
